Test results from patent US20120251442A1, “Methods for Treatment of Tumors by Direct Administration of a Radioisotope” (GABRIEL INSTITUTE, INC., priority 2007, published 2012).

Assay: Radioisotope delivered into a drilled hole in the femur, tissue counting at two hours
Assay type: in vivo, Sprague Dawley rat
Method: A miniature drill was used to create a hole in the femur of an anesthetized Sprague Dawley rat. A miniature pump was used to deliver 3 μL of this Ho-166 composition into the hole created by the drill.
Two hours after the injection of the dose the rat was sacrificed and dissected. Tissues/organs excised and counted included bone (opposite femur), liver, kidneys, spleen, muscle, blood, heart, lung, pancreas as well as the injected femur. Counting was done by the use of a NaI gamma detector to determine the presence of radioactivity.
The amount of activity found in the site of injection was 92% of the injected dose. Less than 2% of the dose was found in the liver or in the rest of the bone. Total skeletal dose was determined by multiplying the % dose in the opposite femur by 25.
Ho-166 in 0.1M HCl was obtained from MURR. The pH was measured with pH paper showing a pH of about 1. The miniature drill described above in Example 6 was used to create a hole in the femur of an anesthetized Sprague Dawley rat. The miniature pump described above was used to deliver 3 μL of Ho-166 solution into the hole created by the drill. Two hours after the injection of the dose the rat was sacrificed and dissected. The amount of activity found in the site of injection was 5% of the injected dose. However 52% of the dose was found in the liver and 23% of the dose was found in the rest of the bone. Total skeletal dose was determined by multiplying the % dose in the opposite femur by 25.
The miniature drill described in Example 6 was used to create a hole in the femur of an anesthetized Sprague Dawley rat. The miniature pump described in Example 6 was used to deliver 2 μL of Sm-153-DOTMP solution into the hole created by the drill. Two hours after the injection of the dose the rat was sacrificed and dissected. The amount of activity found in the site of injection was 9% of the injected dose. None of the radioactivity was found in the liver and about 20% was found in the rest of the bone. Total skeletal dose was determined by multiplying the % dose in the opposite femur by 25. An average of 65% of the injected dose was found in the urine.

[1] = two hours after injection into femur hole

## O=P([O-])(O)CN1CCN(CP(=O)([O-])O)CCN(CP(=O)(O)O)CCN(CP(=O)([O-])O)CC1.[153Sm+3] [Sm-153-DOTMP]
[1]
  Activity found in the site of injection, % of the injected dose: 9%
  Dose found in the liver: None
  Injected dose found in the urine: 65%
Two hours after injection, % dose in opposite femur multiplied by 25
  Dose found in the rest of the bone: about 20%
